In US20240181049A1, “HARNESSING THE POWER OF MICROBIOTA AND METABOLITES FOR THE TREATMENT OF CANCER” (UTI LIMITED PARTNERSHIP, priority 2019, published 2024):

Key:
[1] = tested on: naïve CD4^+ T cells; assay: Naive CD4+ T cells with anti-CD3/anti-CD28 coated beads; type: cell-based, mice
Excerpt: FIG. 4A-4K: Effect of inosine on T cell differentiation and dependency on classical dendritic cells of ICB therapy efficacy. (a) Scatter plot of untargeted metabolomics data in the serum of anti-CTLA-4 treated, tumor-bearing B.p. monocolonized compared to C.sp. monocolonized and germ-free (GF) mice. Grey circles or dotted grey circles depict inosine or inosine fragments/adducts, respectively. […] (c) Naïve CD4^+ T cells were co-cultured with bone marrow derived dendritic cells and IFN-γ. Quantification of T-bet^+CD3ε^+CD4^+ T cells 48 hours after co-culture in the presence or absence of inosine, A2A receptor inhibitor (ZM241385), cell permeable cAMP (db-cAMP) and protein kinase A inhibitor (RP-8-CPT-CAMPS). (d) Same as (c) without IFN-γ. (e) Representative plot and quantification (left and right panel) of phospho-CREB (Ser133) levels in naïve CD4^+ T cells cultured with anti-CD3/anti-CD28 coated beads for 1 hour in the presence or absence of inosine. (f) Schematic overview of experimental setup to deplete classical dendritic cells during MC38 tumor challenge and anti-CTLA-4 treatment. Intratumoral (g) frequency of CD8^+ T cells (h) IFN-γ^+CD8^+ T cells. (i and j) same as (g and h), but CD4^+ T cells and (k) tumor weight at […]. Data are mean±SEM and pooled from two individual experiments (a-b) n=5-8 samples/group (c-e) 10-15 biological replicates/group (f-k) 10 mice/group. *, P<0.05; **, P<0.01; ***, P<0.001; ****, P<0.0001
FIG. 16A-16J: Context dependent effect of inosine on Th1 T cell differentiation. (a) Naïve CD4^+ T cells were co-cultured with bone marrow derived dendritic cells without IFN-γ. Quantification of T-bet^+CD3e^+CD4^+ T cells 48 hours after co-culture in the presence or absence of inosine and anti-CTLA-4, as indicated. (b) Naïve CD4^+ T cells were cultured anti-CD3/anti-CD28 coated beads at a ratio of 1:1 without IFN-γ for 48 hours. Representative plot and quantification of IL12Rβ2 surface expression on CD4^+ T cells in the presence or absence of inosine (left and right panel). (c) Quantification of T-bet^+CD3e^+CD4^+ T cells 48 hours after co-culture in the presence or absence of inosine, db-cAMP and anti-CTLA-4 as indicated. (d) Naïve, A2AR-deficient CD4^+ T cells were cultured with anti-CD3/anti-CD28 coated beads at a ratio of 1:1 without IFN-γ. Quantification of T-bet^+CD3e^+CD4^+ T cells 48 hours after co-culture in the presence or absence of inosine or db-cAMP (e) Representative plot and quantification (left and right panel) of pCREB expression of anti-CD3/anti-CD28 bead co-cultured CD4^+ T cells in the presence or absence of inosine or db-cAMP 1 hour after stimulation. Analysis through flow cytometry. (f and g) Naïve, wild type CD4^+ T cells were cultured with anti-CD3/anti-CD28 coated beads at a ratio of 1:1. Il12rb2 and Ifng gene transcripts (normalized to Gapdh) were evaluated 24 and 48 hours following inosine (1 mM) stimulation. Expression was normalized to cells treated with medium. Analysis through quantitative PCR assay (h) Naïve CD4^+ T cells were cultured with anti-CD3/anti-CD28 coated beads at a ratio of 1:1 without IFN-γ for 24 hours. Then inosine or vehicle was added at the indicated concentrations for another 48 hours before T cell differentiation and activation was assessed. (i) Adenosine concentrations in the duodenal-, jejunal- or cecal content of B.p. monocolonized mice and in the serum of B.p. or C.sp. monocolonized anti-CTLA-4 treated mice. (j) Naïve CD4^+ T cells were cultured with anti-CD3/anti-CD28 coated beads at a ratio of 1:1 without IFN-γ for 24 hours. Adenosine or was added then in the indicated concentrations for another 48 hours followed by T cell differentiation and activation was assessed through flow cytometry. […]

[2] = tested on: A2AR-deficient CD4^+ T cells; assay: A2AR-deficient naive CD4+ T cells with anti-CD3/anti-CD28 coated beads; type: cell-based, mice
Experimental: FIG. 16A-16J: Context dependent effect of inosine on Th1 T cell differentiation. (a) Naïve CD4^+ T cells were co-cultured with bone marrow derived dendritic cells without IFN-γ. Quantification of T-bet^+CD3e^+CD4^+ T cells 48 hours after co-culture in the presence or absence of inosine and anti-CTLA-4, as indicated. (b) Naïve CD4^+ T cells were cultured anti-CD3/anti-CD28 coated beads at a ratio of 1:1 without IFN-γ for 48 hours. Representative plot and quantification of IL12Rβ2 surface expression on CD4^+ T cells in the presence or absence of inosine (left and right panel). (c) Quantification of T-bet^+CD3e^+CD4^+ T cells 48 hours after co-culture in the presence or absence of inosine, db-cAMP and anti-CTLA-4 as indicated. […] Quantification of T-bet^+CD3e^+CD4^+ T cells 48 hours after co-culture in the presence or absence of inosine or db-cAMP (e) Representative plot and quantification (left and right panel) of pCREB expression of anti-CD3/anti-CD28 bead co-cultured CD4^+ T cells in the presence or absence of inosine or db-cAMP 1 hour after stimulation. […] Il12rb2 and Ifng gene transcripts (normalized to Gapdh) were evaluated 24 and 48 hours following inosine (1 mM) stimulation. […] Analysis through quantitative PCR assay (h) Naïve CD4^+ T cells were cultured with anti-CD3/anti-CD28 coated beads at a ratio of 1:1 without IFN-γ for 24 hours. […]

OC[C@H]1O[C@@H](n2cnc3c(O)ncnc32)[C@H](O)[C@@H]1O [inosine]
phosphorylation of CREB (Ser133) ([1]; 1 hour): led to phosphorylation
Th1 differentiation ([1]; bead-activated naïve T cells, no DCs): enhanced Th1 differentiation, even in the absence of IFN-γ
Il12rb2 and Ifng gene transcription ([1]; inosine 1 mM, 24 and 48 hours, quantitative PCR): sustained upregulation
Th1 activation, inosine dose response ([1]; physiological concentrations observed in sera of B.p. but not C.sp. monocolonized mice): sufficient to induce Th1 activation
IL12Rβ2 surface expression ([1]; without IFN-γ, 48 hours): upregulation of IL12Rβ2
Th1 differentiation and phosphorylation of CREB [2]: absent
